Measurements from ChEMBL document CHEMBL5321218, “Bifunctional degraders of cyclin dependent kinase 9 (CDK9): Probing the relationship between linker length, properties, and selective protein degradation” (Eur J Med Chem, 2023).
Calls of active or inactive are those of the source. The rule behind the calls is not given here.

Assays:
[1] = system: MOLM-13; experiment: Anticancer activity against human MOLM-13 cells assessed as cell growth inhibition measured after 48 hrs by MTS assay; assay type: functional, cell-based; settings: MOLM-13, 48 h
[2] = biological target: T1, Protein cereblon/Cyclin-dependent kinase 9 (Homo sapiens, UniProt P50750+Q96SW2); experiment: Protac activity at CRBN/CDK9 in human MV4-11 cells assessed as CDK9 degradation at 1 uM measured after 6 hrs by Western blot analysis; assay type: cell-based
Target sequence in this assay (P50750 whole entry, looked up): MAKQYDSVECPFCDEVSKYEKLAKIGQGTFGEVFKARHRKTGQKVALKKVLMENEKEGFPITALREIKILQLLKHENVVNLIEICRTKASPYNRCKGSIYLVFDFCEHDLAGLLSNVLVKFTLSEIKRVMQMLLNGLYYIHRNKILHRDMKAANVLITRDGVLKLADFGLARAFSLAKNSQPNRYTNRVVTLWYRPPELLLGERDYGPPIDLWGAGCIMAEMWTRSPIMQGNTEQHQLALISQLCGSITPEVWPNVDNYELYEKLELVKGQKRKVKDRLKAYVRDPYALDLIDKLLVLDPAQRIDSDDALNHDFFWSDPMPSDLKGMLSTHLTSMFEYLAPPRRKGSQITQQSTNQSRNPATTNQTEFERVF
Target sequence in this assay (Q96SW2 whole entry, looked up): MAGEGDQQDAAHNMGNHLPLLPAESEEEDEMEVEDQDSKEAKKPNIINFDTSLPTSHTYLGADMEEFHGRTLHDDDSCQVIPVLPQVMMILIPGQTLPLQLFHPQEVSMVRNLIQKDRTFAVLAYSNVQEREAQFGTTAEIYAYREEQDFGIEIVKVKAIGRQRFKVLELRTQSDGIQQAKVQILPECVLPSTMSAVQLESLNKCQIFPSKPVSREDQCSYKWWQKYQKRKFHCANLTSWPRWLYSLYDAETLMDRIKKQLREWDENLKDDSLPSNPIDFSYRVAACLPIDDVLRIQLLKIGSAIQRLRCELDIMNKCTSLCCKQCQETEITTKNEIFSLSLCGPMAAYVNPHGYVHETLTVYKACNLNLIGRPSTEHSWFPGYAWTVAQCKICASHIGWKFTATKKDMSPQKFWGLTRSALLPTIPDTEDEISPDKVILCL

[3] = biological target: T1, Protein cereblon/Cyclin-dependent kinase 9; experiment: Protac activity at CRBN/CDK9 in human MV4-11 cells assessed as CDK9 degradation at 5 uM measured after 6 hrs by Western blot analysis; assay type: cell-based
Target sequence in this assay (P50750 whole entry, looked up): as the sequence (P50750 whole entry, looked up) above
Target sequence in this assay (Q96SW2 whole entry, looked up): as the sequence (Q96SW2 whole entry, looked up) above

[4] = biological target: T1, Protein cereblon/Cyclin-dependent kinase 9; experiment: Protac activity at CRBN/CDK9 in human MV4-11 cells assessed as reduction in MCL-1 level at 1 uM measured after 6 hrs by Western blot analysis; assay type: cell-based
Target sequence in this assay (P50750 whole entry, looked up): as the sequence (P50750 whole entry, looked up) above
Target sequence in this assay (Q96SW2 whole entry, looked up): as the sequence (Q96SW2 whole entry, looked up) above

[5] = biological target: T1, Protein cereblon/Cyclin-dependent kinase 9; experiment: Protac activity at CRBN/CDK9 in human MV4-11 cells assessed as CDK9 degradation at 0.01 to 5 uM measured after 6 hrs by Western blot analysis; assay type: cell-based; settings: dose 0.01-5 µM
Target sequence in this assay (P50750 whole entry, looked up): as the sequence (P50750 whole entry, looked up) above
Target sequence in this assay (Q96SW2 whole entry, looked up): as the sequence (Q96SW2 whole entry, looked up) above

[6] = system: T-lymphocyte; experiment: Induction of CDK2 degradation in T-lymphocyte (unknown origin); assay type: cell-based
[7] = system: B-lymphocyte; experiment: Induction of CDK2 degradation in B-lymphocyte (unknown origin); assay type: cell-based
[8] = biological target: T1, Protein cereblon/Cyclin-dependent kinase 9; experiment: Protac activity at CRBN/CDK9 isoform 42 in human MOLM-13 cells assessed assessed as protein degradation measured after 6 hrs by Western blot analysis; assay type: cell-based
Target sequence in this assay (P50750 whole entry): as the sequence (P50750 whole entry, looked up) above
Target sequence in this assay (Q96SW2 whole entry): as the sequence (Q96SW2 whole entry, looked up) above

[9] = biological target: T1, Protein cereblon/Cyclin-dependent kinase 9; experiment: Protac activity at CRBN/CDK9 in human MV4-11 cells assessed as protein degradation at 1 uM treated for 6 hrs followed by compound washout measured after 24 hrs by Western blot analysis; assay type: cell-based
Target sequence in this assay (P50750 whole entry, looked up): as the sequence (P50750 whole entry, looked up) above
Target sequence in this assay (Q96SW2 whole entry, looked up): as the sequence (Q96SW2 whole entry, looked up) above

[10] = system: MOLM-13; experiment: Effect on ikaros expression in human MOLM-13 cells upto 5 uM measured after 6 hrs by Western blot analysis; assay type: functional, cell-based
[11] = biological target: T1, Protein cereblon/Cyclin-dependent kinase 9; experiment: Protac activity at CRBN/CDK9 in human MV4-11 cells assessed as protein degradation at 1 uM treated for 6 hrs followed by compound washout measured after 48 hrs by Western blot analysis; assay type: cell-based
Target sequence in this assay (P50750 whole entry, looked up): as the sequence (P50750 whole entry, looked up) above
Target sequence in this assay (Q96SW2 whole entry, looked up): as the sequence (Q96SW2 whole entry, looked up) above

[12] = biological target: T1, Protein cereblon/Cyclin-dependent kinase 9; experiment: Protac activity at CRBN/CDK9 in human MV4-11 cells assessed as protein degradation at 1 uM measured after 6 hrs in presence of pomalidomide by Western blot analysis; assay type: cell-based
[13] = biological target: T1, Protein cereblon/Cyclin-dependent kinase 9; experiment: Protac activity at CRBN/CDK9 isoform 55 in human MOLM-13 cells assessed assessed as protein degradation measured after 6 hrs by Western blot analysis; assay type: cell-based
Target sequence in this assay (P50750 whole entry): as the sequence (P50750 whole entry, looked up) above
Target sequence in this assay (Q96SW2 whole entry): as the sequence (Q96SW2 whole entry, looked up) above

[14] = biological target: T1, Protein cereblon/Cyclin-dependent kinase 9; experiment: Protac activity at CRBN/CDK9 in human MV4-11 cells assessed as protein degradation at 1 uM measured after 6 hrs in presence of […] by Western blot analysis; assay type: cell-based
[15] = biological target: T1, Protein cereblon/Cyclin-dependent kinase 9; experiment: Protac activity at CRBN/CDK9 isoform 42 in human MOLM-13 cells assessed assessed as protein degradation measured after 6 hrs by Western blot analysis relative to control; assay type: cell-based
[16] = biological target: T1, Protein cereblon/Cyclin-dependent kinase 9; experiment: Protac activity at CRBN/CDK9 in human MV4-11 cells assessed as protein degradation at 1 uM measured after 6 hrs in presence of bortezomib by Western blot analysis; assay type: cell-based
[17] = biological target: T1, Protein cereblon/Cyclin-dependent kinase 9; experiment: Protac activity at CRBN/CDK9 isoform 55 in human MOLM-13 cells assessed assessed as protein degradation measured after 6 hrs by Western blot analysis relative to control; assay type: cell-based
[18] = biological target: T1, Protein cereblon/Cyclin-dependent kinase 9; experiment: Protac activity at CRBN/CDK9 in human MV4-11 cells assessed as protein degradation at 1 uM measured after 6 hrs in presence of carfilzomib by Western blot analysis; assay type: cell-based
[19] = biological target: T1, Protein cereblon/Cyclin-dependent kinase 9; experiment: Protac activity at CRBN/CDK9 in human MV4-11 cells assessed as reduction in MCL-1 level upto 5 uM measured after 6 hrs by Western blot analysis; assay type: cell-based
[20] = system: MV4-11; experiment: Anticancer activity against human MV4-11 cells assessed as cell growth inhibition for 6 hrs followed by compound washout measured after 24 hrs by Annexin V/Propidium iodide staining based flow cytometric analysis; assay type: functional
[21] = biological target: Cyclin-dependent kinase 9 (Homo sapiens) (UniProt P50750); experiment: Induction of CDK9 degradation in human MOLM-13 cells assessed as fold change measured after 6 hrs by proteomics analysis; assay type: cell-based
[22] = system: MOLM-13; experiment: Effect on aiolos expression in human MOLM-13 cells upto 5 uM measured after 6 hrs by Western blot analysis; assay type: functional, cell-based
[23] = biological target: T1, Protein cereblon/Cyclin-dependent kinase 9; experiment: Protac activity at CRBN/CDK9 in human MV4-11 cells assessed as reduction in c-Myc level upto 5 uM measured after 6 hrs by Western blot analysis; assay type: cell-based
[24] = system: MOLM-13; experiment: Effect on ikaros expression in human MOLM-13 cells at 0.1 uM measured after 6 hrs by Western blot analysis; assay type: functional, cell-based

Cyclin-dependent kinase 9 (Homo sapiens), sequence (P50750 whole entry): as the sequence (P50750 whole entry, looked up) above

## O=C1CCC(N2C(=O)c3cccc(OCC(=O)N4CCC(NC(=O)c5n[nH]cc5NC(=O)c5c(Cl)cccc5Cl)CC4)c3C2=O)C(=O)N1 (stereo not given)
[1]
  IC50: 6.62 µM
[2]
  Activity: inactive

## O=C(COc1cccc2c1C(=O)N(C1CCC(=O)NC1=O)C2=O)NCCC(=O)Nc1cccc(C(=O)NCCC(=O)N2CCC(NC(=O)c3n[nH]cc3NC(=O)c3c(Cl)cccc3Cl)CC2)c1 (stereo not given)
[3]
  Activity: inactive

## O=C1CCC(N2C(=O)c3cccc(NCC(=O)N4CCC(NC(=O)c5n[nH]cc5NC(=O)c5c(Cl)cccc5Cl)CC4)c3C2=O)C(=O)N1 (stereo not given)
[4]
  Activity: inactive
[1]
  IC50: 774 µM
[2]
  Activity: inactive

## O=C(COc1cccc2c1C(=O)N(C1CCC(=O)NC1=O)C2=O)NCCCCCCCCCCCC(=O)N1CCC(NC(=O)c2n[nH]cc2NC(=O)c2c(Cl)cccc2Cl)CC1 (stereo not given)
[4]
  Activity: Active
[1]
  IC50: 0.12 µM
[2]
  Activity: Active

## O=C(CCCCCCCCCNC(=O)COc1cccc2c1C(=O)N(C1CCC(=O)NC1=O)C2=O)NCCCCCCCCCC(=O)N1CCC(NC(=O)c2n[nH]cc2NC(=O)c2c(Cl)cccc2Cl)CC1 (stereo not given)
[1]
  IC50: 2.22 µM

## O=C(CCCCNC(=O)COc1cccc2c1C(=O)N(C1CCC(=O)NC1=O)C2=O)NCCCCC(=O)N1CCC(NC(=O)c2n[nH]cc2NC(=O)c2c(Cl)cccc2Cl)CC1 (stereo not given)
[5]
  Activity: inactive
[1]
  IC50: 47.4 µM

## O=C(CCNC(=O)CNc1cccc2c1C(=O)N(C1CCC(=O)NC1=O)C2=O)NCCC(=O)NCCC(=O)N1CCC(NC(=O)c2n[nH]cc2NC(=O)c2c(Cl)cccc2Cl)CC1 (stereo not given)
[3]
  Activity: inactive

## O=C(COc1cccc2c1C(=O)N(C1CCC(=O)NC1=O)C2=O)NCCOCCOCCOCC(=O)N1CCC(NC(=O)c2n[nH]cc2NC(=O)c2c(Cl)cccc2Cl)CC1 (stereo not given)
[1]
  IC50: 92.2 µM

## O=C(CCCCCCCCCCCNC(=O)COc1cccc2c1C(=O)N(C1CCC(=O)NC1=O)C2=O)NCCCCCCCCCCCC(=O)N1CCC(NC(=O)c2n[nH]cc2NC(=O)c2c(Cl)cccc2Cl)CC1 (stereo not given)
[1]
  IC50: 83.2 µM

## O=C(CCCCCCCCCCNC(=O)COc1cccc2c1C(=O)N(C1CCC(=O)NC1=O)C2=O)NCCCCCCCCCCC(=O)N1CCC(NC(=O)c2n[nH]cc2NC(=O)c2c(Cl)cccc2Cl)CC1 (stereo not given)
[1]
  IC50: 22.2 µM

## O=C(CCCCCNC(=O)CNc1cccc2c1C(=O)N(C1CCC(=O)NC1=O)C2=O)NCCCCCC(=O)N1CCC(NC(=O)c2n[nH]cc2NC(=O)c2c(Cl)cccc2Cl)CC1 (stereo not given)
[1]
  IC50: 13 µM

## O=C(COc1cccc2c1C(=O)N(C1CCC(=O)NC1=O)C2=O)NCCCCCCCC(=O)N1CCC(NC(=O)c2n[nH]cc2NC(=O)c2c(Cl)cccc2Cl)CC1 (stereo not given)
[4]
  Activity: Active
[1]
  IC50: 0.21 µM
[2]
  Activity: Active

## O=C(CCCCCCNC(=O)COc1cccc2c1C(=O)N(C1CCC(=O)NC1=O)C2=O)NCCCCCCC(=O)N1CCC(NC(=O)c2n[nH]cc2NC(=O)c2c(Cl)cccc2Cl)CC1 (stereo not given)
[1]
  IC50: 6.27 µM

## O=C(COc1cccc2c1C(=O)N(C1CCC(=O)NC1=O)C2=O)NCCC(=O)N1CCC(NC(=O)c2n[nH]cc2NC(=O)c2c(Cl)cccc2Cl)CC1 (stereo not given)
[1]
  IC50: 39.7 µM
[2]
  Activity: inactive

## O=C(CCCCCCCCCCNC(=O)CNc1cccc2c1C(=O)N(C1CCC(=O)NC1=O)C2=O)NCCCCCCCCCCC(=O)N1CCC(NC(=O)c2n[nH]cc2NC(=O)c2c(Cl)cccc2Cl)CC1 (stereo not given)
[1]
  IC50: 28.4 µM

## O=C(CCCCCNC(=O)COc1cccc2c1C(=O)N(C1CCC(=O)NC1=O)C2=O)NCCCCCC(=O)N1CCC(NC(=O)c2n[nH]cc2NC(=O)c2c(Cl)cccc2Cl)CC1 (stereo not given)
[1]
  IC50: 11.7 µM

## O=C(COc1cccc2c1C(=O)N(C1CCC(=O)NC1=O)C2=O)NCCCCC(=O)N1CCC(NC(=O)c2n[nH]cc2NC(=O)c2c(Cl)cccc2Cl)CC1 (stereo not given)
[1]
  IC50: 43.6 µM

## O=C(CCCCNC(=O)CNc1cccc2c1C(=O)N(C1CCC(=O)NC1=O)C2=O)NCCCCC(=O)N1CCC(NC(=O)c2n[nH]cc2NC(=O)c2c(Cl)cccc2Cl)CC1 (stereo not given)
[5]
  Activity: inactive
[1]
  IC50: 29.7 µM

## O=C(COc1cccc2c1C(=O)N(C1CCC(=O)NC1=O)C2=O)NCCCCCC(=O)N1CCC(NC(=O)c2n[nH]cc2NC(=O)c2c(Cl)cccc2Cl)CC1 (stereo not given)
[1]
  IC50: 2.7 µM

## O=C(CCCCCCCCCNC(=O)CNc1cccc2c1C(=O)N(C1CCC(=O)NC1=O)C2=O)NCCCCCCCCCC(=O)N1CCC(NC(=O)c2n[nH]cc2NC(=O)c2c(Cl)cccc2Cl)CC1 (stereo not given)
[1]
  IC50: 9.43 µM

## O=C(CCCCCCCCNC(=O)COc1cccc2c1C(=O)N(C1CCC(=O)NC1=O)C2=O)NCCCCCCCCC(=O)N1CCC(NC(=O)c2n[nH]cc2NC(=O)c2c(Cl)cccc2Cl)CC1 (stereo not given)
[1]
  IC50: 0.82 µM

## O=C(CCCCCCCNC(=O)CNc1cccc2c1C(=O)N(C1CCC(=O)NC1=O)C2=O)NCCCCCCCC(=O)N1CCC(NC(=O)c2n[nH]cc2NC(=O)c2c(Cl)cccc2Cl)CC1 (stereo not given)
[1]
  IC50: 3.01 µM

## O=C(COc1cccc2c1C(=O)N(C1CCC(=O)NC1=O)C2=O)NCCCCCCCCCCC(=O)N1CCC(NC(=O)c2n[nH]cc2NC(=O)c2c(Cl)cccc2Cl)CC1 (stereo not given)
[6]
  Activity: Active
[7]
  Activity: Active
[8]
  DC50: 0.1 µM
[9]
  Activity: Active
[10]
  Activity: inactive
[11]
  Activity: inactive
[12]
  Activity: inactive
[13]
  DC50: 0.14 µM
[14]
  Activity: inactive
[4]
  Activity: Active
[15]
  Emax: 93.1%
[16]
  Activity: inactive
[17]
  Emax: 91.6%
[1]
  IC50: 0.04 µM
[18]
  Activity: inactive
[19]
  Activity: Active
[2]
  Activity: Active
[20]
  EC50: 0.4 µM
[21]
  fold change (FC): > 2
[22]
  Activity: inactive

## O=C(CNc1cccc2c1C(=O)N(C1CCC(=O)NC1=O)C2=O)NCCCCCCCCCCC(=O)N1CCC(NC(=O)c2n[nH]cc2NC(=O)c2c(Cl)cccc2Cl)CC1 (stereo not given)
[8]
  DC50: 0.03 µM
[13]
  DC50: 0.05 µM
[15]
  Emax: 93.1%
[17]
  Emax: 91.6%
[1]
  IC50: 42.1 µM
[23]
  Activity: Active
[24]
  Activity: inactive
[2]
  Activity: Active
[20]
  EC50: 0.2 µM

## O=C(NC1CCNCC1)c1n[nH]cc1NC(=O)c1c(Cl)cccc1Cl
[20]
  EC50: 1.1 µM

## O=C(CCCCCCCNC(=O)COc1cccc2c1C(=O)N(C1CCC(=O)NC1=O)C2=O)NCCCCCCCC(=O)N1CCC(NC(=O)c2n[nH]cc2NC(=O)c2c(Cl)cccc2Cl)CC1 (stereo not given)
[1]
  IC50: 2.39 µM

## O=C(CCCCCCNC(=O)CNc1cccc2c1C(=O)N(C1CCC(=O)NC1=O)C2=O)NCCCCCCC(=O)N1CCC(NC(=O)c2n[nH]cc2NC(=O)c2c(Cl)cccc2Cl)CC1 (stereo not given)
[1]
  IC50: 6.96 µM

## O=C(CCCCCCCCNC(=O)CNc1cccc2c1C(=O)N(C1CCC(=O)NC1=O)C2=O)NCCCCCCCCC(=O)N1CCC(NC(=O)c2n[nH]cc2NC(=O)c2c(Cl)cccc2Cl)CC1 (stereo not given)
[1]
  IC50: 1.4 µM
